Data published in PMC9573696, “Experimental Examination of Solubility and Lipophilicity as Pharmaceutically Relevant Points of Novel Bioactive Hybrid Compounds” (Molecules, 2022).
≈ marks a conversion by molar mass, not a printed value.

What was measured:
C. glabrata 61L = experiment: In vitro antifungal activity, microbroth dilution (MIC); assay type: cell-based; details: Nakaseomyces glabratus; C. glabrata 61L; 35 °C, 24 h; read-out: MIC
Procedure: (§1) The in vitro antifungal screening results of synthesized compounds was evaluated against three fungal strains: C. parapsilosis ATCC 22019, C. utilis 84, and C. glabrata 61L are summarized in Table 1.
(§2) The in vitro antifungal activity of the target compounds was measured by means of the minimal inhibitory concentrations (MIC) with fluconazole as the control drug. Procedure was carried out by the microbroth dilution method in 96-well plates according to the recommendations of the Clinical and Laboratory Standards Institute. The detailed information was reported previously. The investigated pathogenic species included C. parapsilosis ATCC 22019, C. utilis 84 and C. glabrata 61. The sensitivity was evaluated visually, after the incubation at 35 °C for 24 h and the value was compared with the growth density in the reference culture without the sample. Each test was conducted in triplicate.

[1] = system: C. parapsilosis ATCC 22019; experiment: as above; assay type: cell-based; details: C. parapsilosis ATCC 22019
Procedure: as §1, §2

C. utilis 84 = experiment: as above; assay type: cell-based; details: C. utilis 84
Procedure: as §1, §2

[2] = Equilibrium (thermodynamic) solubility, shake-flask method; assay type: physicochemical; details: for Solubility S × 10^3 / Solubility x × 10^4 / Solubility x × 10^5 / Solubility S × 10^4 / Solubility x × 10^6: amorphous state; for Solubility S × 10^4 / Solubility x × 10^6: Buffer pH 7.4
Source text: The experimental solubility values of hybrids in the selected solvents within the temperature range of 293.15–313.15 K expressed in molarity are summarized in Table 2. The comparative analysis of the reference values of the solubility of compounds I–III at the standard temperature of 298.15 K is given as a histogram in Figure 3.
Shake-flask method as “gold standard” was used for determination thermodynamic solubility synthesized compounds in buffer solutions (pH 2.0 and 7.4) and 1-octanol in the temperature range of 293.15–313.15 K with a step of 5 degrees at atmospheric pressure. Excessive amounts of compound were added to glass vials c 12 mL of selected solvent. The heterogeneous system is closed with a lid and vigorously stirred at the selected temperature in an air thermostat with a stirring device until the solubility equilibrium has been reached. The time required for establishing a constant value of the solution concentration was determined from the solubility kinetic dependences and averaged 2 days. The equilibrated solutions were first survived to aim sedimentation of solid phase during 10 h, then centrifuged at 20,000 rpm for 30 min at specific temperatures, and then quickly filtered using a syringe equipped with a hydrophilic filter Millex-GV 0.22 µm (Ireland). Concentration of saturated solution was measured using spectrophotometer Cary-50 (Varian, USA) with an accuracy of 2–4%. The absorbances of compounds studied were measured at wavelengths 332 and 334 nm in buffer solutions and 1-octanol, respectively. If necessary, an aliquot was diluted with an appropriate solvent. The final pH of the saturated buffers was monitored. The solubility of compounds in each solvent was determined by repeating the procedure three times.
Mole fraction concentration was calculated from solubility value S expressed in mol∙L^−1 using Equation (10):(10) x=M2S/S(M2−M1)+1000ρ, where M1 and M2 are the molar masses of solute and solvent, respectively, and ρ (g∙cm^−3) is the density of the pure solvents. The mole fraction solubilities for buffer solutions were calculated taking into account the buffer compositions. The used values of densities are given in Table S6 in Supplementary Material.

O=c1c2sc(=S)n(-c3ccc(F)cc3)c2ncn1CCCN1CCN(CC(O)(Cn2cncn2)c2ccc(F)cc2F)CC1 (stereo not drawn) [II, 6-[3-[4-[2-(2,4-difluorophenyl)-2-hydroxy-3-(1H-1,2,4-triazol-1-yl)propyl]-1-piperazinyl]propyl]-2,3-dihydro-3-(4-fluorophenyl)-2-thioxo-thiazolo[4,5-d]pyrimidin-7(6H)-one]
MIC (C. glabrata 61L): 4 µg/mL (≈ 6.22 µM) | advantage over fluconazole ([1]; MIC ratio): 20 fold | MIC ([1]; Lodderomyces parapsilosis, ATCC22019, 35 °C, 24 h, read-out: MIC): 0.1 µg/mL (≈ 0.156 µM) | activity relative to fluconazole (C. utilis 84): 2 times | MIC (C. utilis 84; Williopsis jadinii, 35 °C, 24 h, read-out: MIC): 1 µg/mL (≈ 1.56 µM) | Solubility S × 10^3 ([2]; 1-Octanol, 293.15 K): 5.3994 mol∙L^−1 (printed as S × 10^3) | Solubility x × 10^4 ([2]; 1-Octanol, 293.15 K): 8.5358 mol. frac. (printed as x × 10^ | Solubility S × 10^3 ([2]; 1-Octanol, 298.15 K): 5.6703 mol∙L^−1 (printed as S × 10^3) | Solubility x × 10^4 ([2]; 1-Octanol, 298.15 K): 9.0027 mol. frac. (printed as x × 10^ | Solubility S × 10^3 ([2]; 1-Octanol, 303.15 K): 5.8834 mol∙L^−1 (printed as S × 10^3) | Solubility x × 10^4 ([2]; 1-Octanol, 303.15 K): 9.3813 mol. frac. (printed as x × 10^ | Solubility S × 10^3 ([2]; 1-Octanol, 308.15 K): 6.1187 mol∙L^−1 (printed as S × 10^3) | Solubility x × 10^4 ([2]; 1-Octanol, 308.15 K): 9.8001 mol. frac. (printed as x × 10^ | Solubility S × 10^3 ([2]; 1-Octanol, 313.15 K): 6.3807 mol∙L^−1 (printed as S × 10^3) | Solubility x × 10^4 ([2]; 1-Octanol, 313.15 K): 10.2644 mol. frac. (printed as x × 10^ | solubility at 2 days ([2]; 25 °C, organic solvent or mixture, thermodynamic from solid, 1-octanol, text values match 298.15 K, read-out: Solubility S in the alcohol (1-octanol)): 5.67 mM (≈ 3640 µg/mL) | Solubility S × 10^3 ([2]; Buffer pH 2.0, 293.15 K): 1.0755 mol∙L^−1 (printed as S × 10^3) | Solubility x × 10^5 ([2]; Buffer pH 2.0, 293.15 K): 1.9402 mol. frac. (printed as x × 10^ | Solubility S × 10^3 ([2]; Buffer pH 2.0, 298.15 K): 1.2330 mol∙L^−1 (printed as S × 10^3) | Solubility x × 10^5 ([2]; Buffer pH 2.0, 298.15 K): 2.2272 mol. frac. (printed as x × 10^ | Solubility S × 10^3 ([2]; Buffer pH 2.0, 303.15 K): 1.4273 mol∙L^−1 (printed as S × 10^3) | Solubility x × 10^5 ([2]; Buffer pH 2.0, 303.15 K): 2.5822 mol. frac. (printed as x × 10^ | Solubility S × 10^3 ([2]; Buffer pH 2.0, 308.15 K): 1.6250 mol∙L^−1 (printed as S × 10^3) | Solubility x × 10^5 ([2]; Buffer pH 2.0, 308.15 K): 2.9451 mol. frac. (printed as x × 10^ | Solubility S × 10^3 ([2]; Buffer pH 2.0, 313.15 K): 1.8394 mol∙L^−1 (printed as S × 10^3) | Solubility x × 10^5 ([2]; Buffer pH 2.0, 313.15 K): 3.3404 mol. frac. (printed as x × 10^ | Solubility S × 10^4 ([2]; 293.15 K): 3.0126 mol∙L^−1 (printed as S × 10^4) | Solubility x × 10^6 ([2]; 293.15 K): 5.4794 mol. frac. (printed as x × 10^ | Solubility S × 10^4 ([2]; 298.15 K): 3.1917 mol∙L^−1 (printed as S × 10^4) | Solubility x × 10^6 ([2]; 298.15 K): 5.8122 mol. frac. (printed as x × 10^ | Solubility S × 10^4 ([2]; 303.15 K): 3.3788 mol∙L^−1 (printed as S × 10^4) | Solubility x × 10^6 ([2]; 303.15 K): 6.1623 mol. frac. (printed as x × 10^ | Solubility S × 10^4 ([2]; 308.15 K): 3.5539 mol∙L^−1 (printed as S × 10^4) | Solubility x × 10^6 ([2]; 308.15 K): 6.4929 mol. frac. (printed as x × 10^ | Solubility S × 10^4 ([2]; 313.15 K): 3.7469 mol∙L^−1 (printed as S × 10^4) | Solubility x × 10^6 ([2]; 313.15 K): 6.8581 mol. frac. (printed as x × 10^
